Source: publication PMC6434189, “Peperomin E and its orally bioavailable analog induce oxidative stress-mediated apoptosis of acute myeloid leukemia progenitor cells by targeting thioredoxin reductase” (Redox Biology, 2019)

Tests used:
[1] = target: T1, TrxR1 in KG-1a CD34+ cells (Homo sapiens, UniProt Q16881); experiment: Imaging TrxR1 activity in cells with TR-green; assay type: cell-based; settings: 2 and 6 μM, dose-dependent
T1 construct: image TrxR activity in intact isolated KG-1a CD34^+ cells; endogenous in cells; host or cells: KG-1a CD34+ cells
T1 sequence (Q16881 1-499 isoform Q16881-5): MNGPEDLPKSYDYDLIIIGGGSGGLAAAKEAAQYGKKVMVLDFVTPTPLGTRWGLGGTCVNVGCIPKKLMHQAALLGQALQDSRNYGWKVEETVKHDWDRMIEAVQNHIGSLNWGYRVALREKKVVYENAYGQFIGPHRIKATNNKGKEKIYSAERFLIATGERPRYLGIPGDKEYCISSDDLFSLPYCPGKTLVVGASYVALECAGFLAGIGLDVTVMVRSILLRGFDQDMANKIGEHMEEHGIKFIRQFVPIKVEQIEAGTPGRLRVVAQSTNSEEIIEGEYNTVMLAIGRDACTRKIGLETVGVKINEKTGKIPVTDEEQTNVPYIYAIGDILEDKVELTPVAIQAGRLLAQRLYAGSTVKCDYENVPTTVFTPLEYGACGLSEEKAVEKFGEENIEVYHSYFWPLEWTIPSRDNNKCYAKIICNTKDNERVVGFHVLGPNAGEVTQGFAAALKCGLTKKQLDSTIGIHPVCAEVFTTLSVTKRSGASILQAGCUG
Method: The specific fluorescence probe of TrxR – TR-green was employed to image TrxR activity in intact isolated KG-1a CD34^+ cells using previously published methods. Briefly, KG-1a CD34^+ cells (5 × 10^5) were incubated with 2 μM and 6 μM PepE or DMAPE (Previously reported TrxR1 inhibitor Parthenolide was used as the positive control, 0.1% DMSO was used as the negative control) in 6-well plates for 12 h, then 10 μM TR-green was added to each plate and incubated at 37 °C for 3 h. Fluorescence and brightfield images were captured using an inverted fluorescence microscope IX-73 (Olympus) with Metamorph software (Molecular Devices).

[2] = test system: CD34+ NBM cells and hBMSCs; experiment: CCK-8 cell viability assay on normal CD34+ NBM cells and hBMSCs; assay type: cell-based, human; settings: 48 h; for toxicity on control CD34+ NBM cells and hBMSCs: 6 μM; for effects on NBM and hBMSC cells: 12 μM
Method: The mononuclear cells were further enriched for CD34 positive cells using the MACS CD34 MicroBead kit following the manufacturer's protocol. Enriched CD34 cell-purity was measured by flow cytometry-based quantification of cells stained using an anti-CD34-FITC antigen. Isolated CD34^+ cells were pre-incubated in the IMDM-based serum-free media for 1 h before the addition of drugs. PepE was dissolved in DMSO to make a 100 mM stock solution and stored in aliquots at – 20 °C. The 100 mM stock solution was diluted with DMSO to 10 mM and then diluted with PBS to 1 mM before treating the cells at the indicated concentrations. DMAPE and Ara-C were diluted in PBS to 1 mM concentration before use.
(§1) Unless otherwise mentioned, 2 × 10^4 cells were seeded at 96-well plates (Corning, New York, USA) in the IMDM-based serum-free media for 1 h. Then, the cells were incubated with different concentrations of PepE and DMAPE at 37 °C in a 5% CO2 incubator for 48 h. At the end of the treatment, 10 μL CCK-8 solution was added to each well and incubated for an additional 2 h at 37 °C, and the absorbance at 450 nm was measured with a microplate reader (Thermo Scientific, Multiskan GO, Finland). Inhibition ratio (%) was calculated as [(absorbance of control − absorbance of the test sample)/absorbance of control] x 100%.

[3] = test system: TrxR1 KD cells (KG-1a CD34+); experiment: CCK-8 viability in TrxR1 knockdown KG-1a CD34+ cells; assay type: cell-based, human; settings: 48 h
Method: as §1
For TrxR1 knockdown experiment, KG-1a CD34^+ cells were seeded in a six-well plate at 2.5 × 10^5/well in antibiotic-free IMDM medium for 24 h; then cells were washed once with 2 ml of shRNA transfection medium (Santa Cruz Biotech, sc-108062) and transfected with either TrxR1 shRNA plasmid (Santa Cruz Biotech, sc-36750-SH) or Control shRNA plasmid (negative control, Santa Cruz Biotech, sc-108060) according to the manufacturer's instructions. Briefly, for each transfection, 0.1 ml of shRNA (TrxR1 or control) duplex solution (containing 1 μg of shRNA plasmids) and 0.1 ml of transfection reagent (Santa Cruz Biotech, sc-108061) were gently mixed and incubated at room temperature for 30 min. […] The knockdown efficiencies were evaluated by western blot and RT-qPCR analyses.

[4] = Stability of the analytes in rat plasma (UFLC-MS/MS); assay type: in vitro ADME; settings: for Freeze-thaw 3 cycles RE (%) / Store at -20℃ for 24h RE (%) / Store at auto-sampler RE (%): rat plasma, n=6; for stability in rat plasma samples: −20 °C for 15 days, three freeze/thaw cycles, room temperature 6 h, autosampler 4 °C 12 h
[5] = test system: TrxR1 overexpressed KG-1a cells (ACTV cells); experiment: CCK-8 viability in TrxR1 overexpressed KG-1a cells; assay type: cell-based, human; settings: 48 h
Method: as §1
For TrxR1 overexpression experiment, KG-1a CD34^+ cells were seeded in a six-well plate at 2.5 × 10^5/well in antibiotic-free IMDM medium for 24 h, then cells were transfected with TrxR1 CRISPR activation plasmids (control CRISPR plasmids as a negative control) according to the manufacturer's instructions. Briefly, for each transfection, 0.15 ml of the Plasmid DNA solution (containing 3 μg of TrxR1 activation or control DNA plasmids) and 0.15 ml of diluted UltraCruz transfection reagent (Santa Cruz Biotech, sc-395739) were gently mixed and added to the cells. […] The activation efficiencies were evaluated by western blot and RT-qPCR analyses.

SMILES	TR-green fluorescence intensities (cellular TrxR1 activity) [1]	toxicity on control CD34+ NBM cells and hBMSCs [2]	effects on NBM and hBMSC cells [2]	potency toward TrxR1 KD cells compared to CTRL KD cells [3]	Freeze-thaw 3 cycles RE (%) ([4]; 5 ng/ml)	Store at -20℃ for 24h RE (%) ([4]; 5 ng/ml)	Store at auto-sampler RE (%) ([4]; 5 ng/ml)	Freeze-thaw 3 cycles RE (%) ([4]; 200 ng/ml)	Store at -20℃ for 24h RE (%) ([4]; 200 ng/ml)	Store at auto-sampler RE (%) ([4]; 200 ng/ml)	Freeze-thaw 3 cycles RE (%) ([4]; 1000 ng/ml)	Store at -20℃ for 24h RE (%) ([4]; 1000 ng/ml)	Store at auto-sampler RE (%) ([4]; 1000 ng/ml)	stability in rat plasma samples [4]	toxicity against ACTV cells vs CTRL ACTV cells [5]
COc1cc(C(c2cc(OC)c3c(c2)OCO3)[C@@H]2COC(=O)[C@H]2CN(C)CCO)cc2c1OCO2 [DMAPE, (2S,3S)-6-Methyl (hydroxyethyl) amino-2,6-dihydropeperomin E]	significant decrease	reduced toxicities	relatively safe	elevated potency	-13.1	-11.0	-11.3	11.2	3.0	-1.3	-5.1	3.3	-3.7	stable	significant lower toxicity
C=C1C(=O)OC[C@H]1C(c1cc(OC)c2c(c1)OCO2)c1cc(OC)c2c(c1)OCO2 [PepE, Peperomin E]	significant decrease	reduced toxicities	modest effects	elevated potency	-11.5	4.4	-10.1	-13.2	11.9	-10.5	-3.6	1.7	-7.2	stable	significant lower toxicity
